Among the test systems are U-251; A498; NCI-H522; MCF7; OVCAR-5; K562; HT-29; SN12C; A549; EKVX; SW-620; SK-MEL-5; HOP-92; NCI-H226; M14; SR; MDA-N; Hs-578T; T47D.
Common to all, as to test: growth of human tumour cells (NCI), 48 h

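Five concentrations, 48 hours, 96-well plates. GI50: concentration for 50% inhibition of growth.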 The source made the active and inactive calls. Rule as the data show it: active = GI50 up to about 1.1 µM and inactive = higher.

As to `COc1ccc2c(c1)OCCc1cn[nH]c1-2`, the GI50 in the experiment on U-251 was 28.8 µM (inactive); in the experiment with A498 it was 28.6 µM (inactive); in the experiment with NCI-H522, 29 µM (inactive); with MCF7, 26.7 µM (inactive); in the experiment with OVCAR-5 it was 35.7 µM (inactive); with K562 it was 41.3 µM (inactive). The GI50 in the experiment on HT-29 was 34.8 µM (inactive); with SN12C, 38.6 µM (inactive); in the experiment on A549, 53.8 µM (inactive); with EKVX, 4.44 µM (inactive); in the experiment with SW-620, 36.3 µM (inactive); with SK-MEL-5, 29.2 µM (inactive). Besides, the GI50 in the experiment with HOP-92 was 15.4 µM (inactive).

Turning to `O=C1c2ccccc2C(=O)N1Cc1ccccc1-c1c2nc(c(-c3ccccc3CN3C(=O)c4ccccc4C3=O)c3ccc([nH]3)c(-c3ccccc3CN3C(=O)c4ccccc4C3=O)c3nc(c(-c4ccccc4CN4C(=O)c5ccccc5C4=O)c4ccc1[nH]4)C=C3)C=C2`, the GI50 was > 100 µM (inactive) with NCI-H226; > 100 µM (inactive) in the experiment on U-251; 31.2 µM (inactive) with M14; > 100 µM (inactive) in the experiment on A498; > 100 µM (inactive) with NCI-H522; > 100 µM (inactive) with OVCAR-5. Besides, the GI50 in the experiment with K562, in the experiment with HT-29, in the experiment on SN12C, with A549, with SW-620 and in the experiment with SR was > 100 µM (inactive) each time. The GI50 was 52.7 µM (inactive) with SK-MEL-5 and > 100 µM (inactive) in the experiment with HOP-92.

Consider `COc1cc(/C=c2\sc3n(c2=O)C(c2ccc(Cl)cc2)C2=C(CCCC2C)N=3)cc(OC)c1OC` (configuration not stated), for which the GI50 in the experiment on U-251, with M14, in the experiment with A498, in the experiment on MCF7, with OVCAR-5 and in the experiment with K562 was > 100 µM (inactive) in each case. The GI50 in the experiment with HT-29, with MDA-N, in the experiment with SN12C, with A549, in the experiment with EKVX and in the experiment on SW-620 was > 100 µM (inactive) in each case. The GI50 with Hs-578T was > 100 µM (inactive); in the experiment with SR, > 100 µM (inactive); with SK-MEL-5, 83 µM (inactive); in the experiment on HOP-92, > 100 µM (inactive).

Turning to `C/C(=C/C(=O)Nc1ccccc1)Nc1onc(C)c1C`, the GI50 with NCI-H226, with U-251, in the experiment on A498, in the experiment with NCI-H522, in the experiment with MCF7 and with OVCAR-5 was > 100 µM (inactive) throughout. Moreover, the GI50 in the experiment on K562, in the experiment on HT-29, with SN12C, with A549, with EKVX and in the experiment with SW-620 was > 100 µM (inactive) each time. Moreover, the GI50 in the experiment on SK-MEL-5 and in the experiment on HOP-92 was > 100 µM (inactive) in each case.

With `CO/N=C(/C)c1cccc(Nc2nc3ccc(Cl)cc3c3[nH]c4ccccc4c23)c1`, the GI50 in the experiment on T47D was 2.47 µM (inactive); with NCI-H226, 12.5 µM (inactive); with U-251 it was 13.6 µM (inactive); in the experiment on M14, 6.92 µM (inactive); in the experiment with A498 it was 4.29 µM (inactive); in the experiment with NCI-H522, 4.75 µM (inactive). Moreover, the GI50 in the experiment with MCF7 is 10.3 µM (inactive); in the experiment with OVCAR-5 it was 7.31 µM (inactive); in the experiment on K562 it was 3.13 µM (inactive); with MDA-N, 11.8 µM (inactive); with SN12C, 11 µM (inactive); with A549, 12.8 µM (inactive). Moreover, the GI50 in the experiment on SW-620 was 6.08 µM (inactive); in the experiment on Hs-578T it was 16.7 µM (inactive); in the experiment with SR, 4.72 µM (inactive); in the experiment on SK-MEL-5, 3.2 µM (inactive); in the experiment with HOP-92, 3.65 µM (inactive).

As to `Cc1cc(NS(=O)(=O)c2ccc(NC(=O)COC(=O)c3cccc4c(=O)c5ccccc5[nH]c34)cc2)no1`, the GI50 with NCI-H226, in the experiment on U-251, with M14, in the experiment on A498, with NCI-H522 and with OVCAR-5 was > 100 µM (inactive) each time. In addition, the GI50 in the experiment with K562, with HT-29, in the experiment on SN12C, with A549, in the experiment on EKVX and in the experiment on SW-620 was > 100 µM (inactive) throughout. Moreover, the GI50 in the experiment with SR, in the experiment on SK-MEL-5 and in the experiment with HOP-92 was > 100 µM (inactive) throughout.

`O=C1NC2OC(C(O)CO)C(O)C2O1` (configuration not stated): the GI50 with U-251, in the experiment on M14, in the experiment with A498, with NCI-H522, in the experiment with OVCAR-5 and in the experiment with K562 was > 100 µM (inactive) each time. Further, the GI50 in the experiment with HT-29, with SN12C, in the experiment with A549, with EKVX, with SW-620 and in the experiment with SR was > 100 µM (inactive) each time. Also, the GI50 in the experiment with SK-MEL-5 and in the experiment on HOP-92 was > 100 µM (inactive) each time.

`C=C(COCO)C(C)=O`: the GI50 in the experiment on T47D was 15.7 µM (inactive); in the experiment on NCI-H226, > 61 µM (inactive); in the experiment on U-251 it was 24.5 µM (inactive); in the experiment on M14, 13 µM (inactive); with A498 it was 27.9 µM (inactive); with NCI-H522, 2.14 µM (inactive). The GI50 was 16.3 µM (inactive) with MCF7; 20.5 µM (inactive) with OVCAR-5; 3.45 µM (inactive) with K562; 17.7 µM (inactive) in the experiment with HT-29; 16.9 µM (inactive) in the experiment with MDA-N; 18.4 µM (inactive) in the experiment on SN12C. Besides, the GI50 with A549 was 26 µM (inactive); in the experiment on EKVX, 20.4 µM (inactive); with SW-620, 3.3 µM (inactive); in the experiment on Hs-578T, 23.9 µM (inactive); in the experiment on SK-MEL-5, 17.5 µM (inactive); in the experiment on HOP-92, 27 µM (inactive).

For the molecule `O/N=C1/CC2(N3CCOCC3)C3CC/C(=N\O)C2CC1(Cc1ccccc1)C3` (configuration not stated), the GI50 was 67 µM (inactive) in the experiment with T47D; > 100 µM (inactive) with NCI-H226; > 100 µM (inactive) in the experiment on U-251; > 100 µM (inactive) with M14; > 100 µM (inactive) in the experiment on A498; > 100 µM (inactive) with NCI-H522. Besides, the GI50 in the experiment with MCF7 was 66.4 µM (inactive); in the experiment with OVCAR-5 it was > 100 µM (inactive); in the experiment with K562, 74 µM (inactive); in the experiment on HT-29, 95.9 µM (inactive); in the experiment with MDA-N, > 100 µM (inactive); with SN12C it was > 100 µM (inactive). For the same molecule, the GI50 with A549 was > 100 µM (inactive); in the experiment on EKVX, > 100 µM (inactive); with SW-620, > 100 µM (inactive); in the experiment with SR, > 100 µM (inactive); in the experiment with SK-MEL-5 it was 44.4 µM (inactive).

As for `COC(=O)[C@@H]1CN(C(=O)c2ccccc2)C(=O)N1`, the GI50 in the experiment on T47D, in the experiment with NCI-H226, in the experiment with U-251, with M14, in the experiment with A498 and in the experiment on NCI-H522 was > 100 µM (inactive) throughout. The GI50 in the experiment with OVCAR-5, in the experiment with K562, in the experiment with HT-29, in the experiment with MDA-N, in the experiment on SN12C and with A549 was > 100 µM (inactive) each time. Moreover, the GI50 with EKVX, with SW-620, in the experiment on Hs-578T, in the experiment with SR, in the experiment with SK-MEL-5 and in the experiment with HOP-92 was > 100 µM (inactive) each time.

In the case of `COc1cccc(N[C@@H]2c3cc4c(cc3C(c3cc(OC)c(O)c(OC)c3)[C@H]3C(=O)OCC32)OCO4)c1` (some centres not stated), the GI50 was 0.249 µM (active) in the experiment on NCI-H226; 0.411 µM (active) in the experiment on U-251; 0.293 µM (active) in the experiment on A498; 1.21 µM (inactive) in the experiment on NCI-H522; 0.207 µM (active) in the experiment on MCF7; 4.46 µM (inactive) with OVCAR-5. Further, the GI50 with K562 is 0.531 µM (active); in the experiment with HT-29 it was 0.973 µM (active); in the experiment with SN12C, 0.681 µM (active); in the experiment on A549, 0.0213 µM (active); with EKVX, 2.56 µM (inactive); in the experiment on SW-620, 0.891 µM (active). Moreover, the results for the GI50 in the experiment with SK-MEL-5 and with HOP-92 were 0.8 µM (active) and 0.346 µM (active), respectively.

As for `O=C1CC(c2ccc(Cl)cc2)Oc2ccccc21` (configuration not stated), the GI50 in the experiment on T47D is 32 µM (inactive); in the experiment on NCI-H226, 4.75 µM (inactive); in the experiment on U-251, 31.8 µM (inactive); in the experiment with M14, 17.1 µM (inactive); with A498, 26.2 µM (inactive); in the experiment with MCF7 it was 3.83 µM (inactive). In addition, the GI50 in the experiment with K562 is 4.86 µM (inactive); in the experiment on HT-29, 8.71 µM (inactive); in the experiment with EKVX, 18.6 µM (inactive); in the experiment with SW-620, 25.7 µM (inactive); with Hs-578T, 15 µM (inactive); with SR, 8.36 µM (inactive). Besides, the GI50 is 14 µM (inactive) in the experiment with SK-MEL-5 and 24.7 µM (inactive) with HOP-92.

As to `Nc1ncc(Cc2ccc3c(c2)OCO3)c(N)n1`, the GI50 was 91.4 µM (inactive) in the experiment with T47D; > 100 µM (inactive) in the experiment with NCI-H226; > 100 µM (inactive) in the experiment with U-251; > 100 µM (inactive) in the experiment on M14; > 100 µM (inactive) in the experiment with A498; > 100 µM (inactive) in the experiment on MCF7. Moreover, the GI50 with OVCAR-5, in the experiment on K562, with HT-29, in the experiment on MDA-N, in the experiment with SN12C and in the experiment with A549 was > 100 µM (inactive) in each case. The GI50 with EKVX was > 100 µM (inactive); in the experiment with SW-620, > 100 µM (inactive); in the experiment on Hs-578T, > 100 µM (inactive); with SR it was > 100 µM (inactive); in the experiment on SK-MEL-5 it was > 100 µM (inactive); in the experiment with HOP-92, 53.5 µM (inactive).

For the origin of these results see ChEMBL document CHEMBL1201862, “PubChem BioAssay data set” (2004).
